Reference: ChEMBL document CHEMBL1130310, “C3-Thia and C3-carba isosteres of a carbocyclic influenza neuraminidase inhibitor, (3R,4R,5S)-4-acetamido-5-amino-3-propoxyl-1-cyclohexene-1-carboxylic acid” (Bioorg Med Chem Lett, 1997)

Assays:
[1] = Concentration required for 50% inhibition of influenza neuraminidase incubated in rat plasma at 37 degrees Celsius prior to assay; assay type: cell-free; details: unidentified influenza virus
[2] = Concentration required for 50% inhibition of influenza neuraminidase; parameters: species or system unidentified influenza virus

Compound	IC50 [1] [nM]	IC50 [2] [nM]
CCCS[C@@H]1C=C(C(=O)O)C[C@H](N)[C@H]1NC(C)=O	212	
CCCO[C@@H]1C=C(C(=O)O)C[C@H](N)[C@H]1NC(C)=O		130
CCCC[C@@H]1C=C(C(=O)O)C[C@H](N)[C@H]1NC(C)=O		220
